One block for each molecule: values may come before it.
Molecular target: T1, ΔF508-CFTR (Homo sapiens, UniProt P13569, DEL508-508)
T1 construct: expressed in transfected cells; host or cells: NIH3T3 mouse fibroblasts stably expressing ΔF508-CFTR for the optical, whole-cell and single-channel assays; Fisher rat epithelial (FRT) cells for Ussing chamber follow-up
Assay: Assays for ΔF508-CFTR correction and potentiator properties (membrane potential optical and electrophysiological methods)
Format: cell-based
Conditions: CFTR modulation; for % Activity: % Efficacy; for EC50: tested using the above methods
In short: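 NIH3T3 mouse fibroblasts stably expressing ΔF508-CFTR were used, with membrane potential read by DiSBAC2(3)/CC2-DMPE FRET on VIPR. Correctors: 16 h compound exposure at 37 °C, then activation with forskolin plus genistein in Cl⁻-free medium. Potentiators: cells held 24 h at 27 °C, compound added in Cl⁻-free medium, 2-10 μM forskolin 22 s later (final Cl⁻ 28 mM).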

T1 sequence (P13569 with tags, fused parts or gaps DEL508-508): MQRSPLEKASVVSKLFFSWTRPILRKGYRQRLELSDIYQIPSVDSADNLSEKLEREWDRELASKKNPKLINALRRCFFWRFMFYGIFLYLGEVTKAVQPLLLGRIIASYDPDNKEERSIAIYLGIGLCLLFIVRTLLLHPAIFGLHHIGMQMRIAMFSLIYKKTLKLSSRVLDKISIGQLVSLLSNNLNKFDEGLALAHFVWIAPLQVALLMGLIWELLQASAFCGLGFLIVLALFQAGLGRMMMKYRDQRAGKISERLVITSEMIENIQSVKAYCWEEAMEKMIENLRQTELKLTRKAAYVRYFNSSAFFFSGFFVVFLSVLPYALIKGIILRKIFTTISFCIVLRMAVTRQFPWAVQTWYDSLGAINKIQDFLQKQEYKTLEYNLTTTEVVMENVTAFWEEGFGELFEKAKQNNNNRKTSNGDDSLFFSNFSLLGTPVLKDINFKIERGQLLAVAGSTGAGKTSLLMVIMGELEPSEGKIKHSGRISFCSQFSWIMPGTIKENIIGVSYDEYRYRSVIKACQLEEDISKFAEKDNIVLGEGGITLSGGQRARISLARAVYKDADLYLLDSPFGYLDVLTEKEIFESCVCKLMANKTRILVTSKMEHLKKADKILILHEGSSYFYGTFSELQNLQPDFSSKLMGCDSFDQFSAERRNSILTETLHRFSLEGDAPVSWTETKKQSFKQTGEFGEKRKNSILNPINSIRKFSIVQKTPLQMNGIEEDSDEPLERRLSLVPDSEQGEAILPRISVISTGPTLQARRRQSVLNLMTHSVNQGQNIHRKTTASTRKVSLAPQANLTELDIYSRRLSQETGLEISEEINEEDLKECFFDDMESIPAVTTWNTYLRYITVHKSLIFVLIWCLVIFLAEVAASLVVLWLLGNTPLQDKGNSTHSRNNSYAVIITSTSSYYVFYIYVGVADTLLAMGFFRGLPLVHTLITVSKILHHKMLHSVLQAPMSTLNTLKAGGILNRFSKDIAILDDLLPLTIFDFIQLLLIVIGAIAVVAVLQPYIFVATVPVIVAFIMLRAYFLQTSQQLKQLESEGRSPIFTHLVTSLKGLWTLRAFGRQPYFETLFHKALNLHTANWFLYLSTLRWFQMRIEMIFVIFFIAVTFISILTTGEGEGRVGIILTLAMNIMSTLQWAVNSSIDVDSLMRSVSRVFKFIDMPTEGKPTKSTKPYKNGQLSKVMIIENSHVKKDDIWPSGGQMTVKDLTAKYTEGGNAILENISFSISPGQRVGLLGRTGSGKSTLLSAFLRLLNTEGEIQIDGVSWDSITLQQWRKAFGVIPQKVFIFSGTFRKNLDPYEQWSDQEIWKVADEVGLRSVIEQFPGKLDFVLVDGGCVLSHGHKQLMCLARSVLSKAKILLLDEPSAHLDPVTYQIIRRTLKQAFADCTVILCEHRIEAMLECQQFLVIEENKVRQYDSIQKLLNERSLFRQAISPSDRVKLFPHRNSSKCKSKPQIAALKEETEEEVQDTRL

SMILES: O=C(Nc1ncc(Cc2ccccc2)s1)C(c1ccccc1)C1CCCCC1 (stereo not shown) [compound 139]
% Activity: ++ (“++” means between 25% to 100%)
EC50: < 10 µM

SMILES: COc1ccccc1Cc1cnc(NC(=O)C2c3ccccc3Oc3ccccc32)s1 [compound 140]
% Activity: ++ (“++” means between 25% to 100%)
EC50: < 10 µM

SMILES: O=C(Nc1ncc(Cc2ccccc2)o1)c1ccccc1 [compound 141]
% Activity: ++ (“++” means between 25% to 100%)
EC50: 10 to 25 µM

SMILES: O=C(Nc1ncc(Cc2ccc(Cl)cc2)o1)C(c1ccccc1)C1CCCCC1 (stereo not shown) [compound 142]
% Activity: ++ (“++” means between 25% to 100%)
EC50: < 10 µM

SMILES: O=C(Nc1ncc(Cc2ccc(Cl)cc2)o1)C(c1ccccc1)c1ccccc1 [compound 143]
% Activity: ++ (“++” means between 25% to 100%)
EC50: 25 to 60 µM

SMILES: O=C(Nc1ncc(Cc2ccc(Cl)cc2)o1)C1Cc2ccccc21 (stereo not shown) [compound 145]
% Activity: ++ (“++” means between 25% to 100%)
EC50: 10 to 25 µM

SMILES: CCC(C(=O)Nc1ncc(Cc2ccc(Cl)cc2)o1)c1ccccc1 (stereo not shown) [compound 146]
% Activity: ++ (“++” means between 25% to 100%)
EC50: < 10 µM

SMILES: CCC(C)C(C(=O)Nc1ncc(Cc2ccc(Cl)cc2)o1)c1ccccc1 (stereo not shown) [compound 147]
% Activity: ++ (“++” means between 25% to 100%)
EC50: < 10 µM

SMILES: O=C(Nc1ncc(Cc2ccc(Cl)cc2)o1)C(c1ccccc1)C1CCCC1 (stereo not shown) [compound 148]
% Activity: ++ (“++” means between 25% to 100%)
EC50: < 10 µM

SMILES: O=C(Cc1ccccc1)Nc1ncc(Cc2ccc(Cl)cc2)o1 [compound 149]
% Activity: ++ (“++” means between 25% to 100%)
EC50: 10 to 25 µM

SMILES: O=C(Nc1ncc(Cc2ccc(Cl)cc2)o1)c1ccccc1 [compound 150]
% Activity: ++ (“++” means between 25% to 100%)
EC50: 10 to 25 µM

SMILES: O=C(Nc1ncc(Cc2cccc(Cl)c2)o1)C(c1ccccc1)C1CCCCC1 (stereo not shown) [compound 151]
% Activity: ++ (“++” means between 25% to 100%)
EC50: < 10 µM

SMILES: O=C(Nc1ncc(Cc2cccc(Cl)c2)o1)C1Cc2ccccc21 (stereo not shown) [compound 152]
% Activity: ++ (“++” means between 25% to 100%)
EC50: 10 to 25 µM

SMILES: CC(C(=O)Nc1ncc(Cc2cccc(Cl)c2)o1)c1ccccc1 (stereo not shown) [compound 153]
% Activity: ++ (“++” means between 25% to 100%)
EC50: < 10 µM

SMILES: CCC(C(=O)Nc1ncc(Cc2cccc(Cl)c2)o1)c1ccccc1 (stereo not shown) [compound 154]
% Activity: ++ (“++” means between 25% to 100%)
EC50: < 10 µM

SMILES: CCC(C)C(C(=O)Nc1ncc(Cc2cccc(Cl)c2)o1)c1ccccc1 (stereo not shown) [compound 155]
% Activity: ++ (“++” means between 25% to 100%)
EC50: < 10 µM

SMILES: O=C(Nc1ncc(Cc2cccc(Cl)c2)o1)C(c1ccccc1)C1CCCC1 (stereo not shown) [compound 156]
% Activity: ++ (“++” means between 25% to 100%)
EC50: < 10 µM

SMILES: O=C(Cc1ccccc1)Nc1ncc(Cc2cccc(Cl)c2)o1 [compound 157]
% Activity: ++ (“++” means between 25% to 100%)
EC50: < 10 µM

SMILES: O=C(Nc1ncc(Cc2cccc(Cl)c2)o1)c1ccccc1 [compound 158]
% Activity: ++ (“++” means between 25% to 100%)

SMILES: O=C(Nc1nc(-c2ccccc2Cl)cs1)c1ccccc1 [compound 159]
% Activity: ++ (“++” means between 25% to 100%)
EC50: < 10 µM

SMILES: O=C(Nc1nc(-c2cccc(Cl)c2)cs1)c1ccccc1 [compound 160]
% Activity: +++ (“+++” means >100%)
EC50: 10 to 25 µM

SMILES: N#Cc1ccc(-c2csc(NC(=O)c3ccccc3)n2)cc1 [compound 161]
% Activity: ++ (“++” means between 25% to 100%)
EC50: 25 to 60 µM

SMILES: COc1ccc(-c2csc(NC(=O)c3ccccc3)n2)c(OC)c1 [compound 162]
% Activity: ++ (“++” means between 25% to 100%)
EC50: 25 to 60 µM

SMILES: O=C(Nc1nc(-c2ccc(N3CCCC3)cc2)cs1)c1ccccc1 [compound 163]
% Activity: ++ (“++” means between 25% to 100%)
EC50: 10 to 25 µM

SMILES: O=C(Nc1nc(-c2ccc3c(c2)OCO3)cs1)c1ccccc1 [compound 164]
% Activity: ++ (“++” means between 25% to 100%)
EC50: 10 to 25 µM

Other lines, results leading:

% Activity: +++ (“+++” means >100%)
EC50: < 10 µM
SMILES: O=C(Nc1nc(-c2ccc(Cl)cc2)c(-c2ccccc2)s1)c1ccccc1 [compound 165]

% Activity: ++ (“++” means between 25% to 100%)
EC50: 10 to 25 µM
SMILES: CC(C(=O)Nc1nc(-c2ccccc2)cs1)c1ccccc1 (stereo not shown) [compound 166]

% Activity: ++ (“++” means between 25% to 100%)
EC50: < 10 µM
SMILES: CCC(C(=O)Nc1nc(-c2ccccc2)cs1)c1ccccc1 (stereo not shown) [compound 167]

% Activity: ++ (“++” means between 25% to 100%)
EC50: < 10 µM
SMILES: CC(C)C(C(=O)Nc1nc(-c2ccccc2)cs1)c1ccccc1 (stereo not shown) [compound 168]

% Activity: ++ (“++” means between 25% to 100%)
EC50: < 10 µM
SMILES: O=C(Nc1nc(-c2ccccc2)cs1)C(c1ccccc1)C1CCCC1 (stereo not shown) [compound 169]

% Activity: ++ (“++” means between 25% to 100%)
EC50: < 10 µM
SMILES: CCC(C)C(C(=O)Nc1nc(-c2ccccc2)cs1)c1ccccc1 (stereo not shown) [compound 170]

% Activity: ++ (“++” means between 25% to 100%)
EC50: < 10 µM
SMILES: COC(=O)c1ccccc1C(=O)Nc1nc(-c2ccccc2)cs1 [compound 171]

% Activity: +++ (“+++” means >100%)
EC50: < 10 µM
SMILES: CC(C(=O)Nc1nc(-c2ccccc2)c(-c2ccccc2)s1)c1ccccc1 (stereo not shown) [compound 172]

% Activity: ++ (“++” means between 25% to 100%)
EC50: < 10 µM
SMILES: CCC(C(=O)Nc1nc(-c2ccccc2)c(-c2ccccc2)s1)c1ccccc1 (stereo not shown) [compound 173]

% Activity: ++ (“++” means between 25% to 100%)
EC50: < 10 µM
SMILES: CC(C)C(C(=O)Nc1nc(-c2ccccc2)c(-c2ccccc2)s1)c1ccccc1 (stereo not shown) [compound 174]

% Activity: ++ (“++” means between 25% to 100%)
EC50: < 10 µM
SMILES: O=C(Nc1nc(-c2ccccc2)c(-c2ccccc2)s1)C(c1ccccc1)C1CCCC1 (stereo not shown) [compound 175]

% Activity: ++ (“++” means between 25% to 100%)
EC50: < 10 µM
SMILES: CCC(C)C(C(=O)Nc1nc(-c2ccccc2)c(-c2ccccc2)s1)c1ccccc1 (stereo not shown) [compound 176]

% Activity: ++ (“++” means between 25% to 100%)
EC50: 10 to 25 µM
SMILES: O=C(Nc1nc(-c2ccccc2)c(-c2ccccc2)s1)C(c1ccccc1)C1CCCCC1 (stereo not shown) [compound 177]

% Activity: +++ (“+++” means >100%)
EC50: < 10 µM
SMILES: COC(=O)c1ccccc1C(=O)Nc1nc(-c2ccccc2)c(-c2ccccc2)s1 [compound 178]

% Activity: ++ (“++” means between 25% to 100%)
EC50: 10 to 25 µM
SMILES: COc1ccccc1Cc1cnc(NC(=O)C(c2ccccc2)C2CCCCC2)o1 (stereo not shown) [compound 179]

% Activity: ++ (“++” means between 25% to 100%)
EC50: 10 to 25 µM
SMILES: COc1ccccc1Cc1cnc(NC(=O)C(c2ccccc2)c2ccccc2)o1 [compound 180]

% Activity: ++ (“++” means between 25% to 100%)
EC50: 25 to 60 µM
SMILES: COc1ccccc1Cc1cnc(NC(=O)C2Cc3ccccc32)o1 (stereo not shown) [compound 181]

% Activity: ++ (“++” means between 25% to 100%)
EC50: 25 to 60 µM
SMILES: COc1ccccc1Cc1cnc(NC(=O)C(C)c2ccccc2)o1 (stereo not shown) [compound 182]

% Activity: ++ (“++” means between 25% to 100%)
EC50: 25 to 60 µM
SMILES: CCC(C(=O)Nc1ncc(Cc2ccccc2OC)o1)c1ccccc1 (stereo not shown) [compound 183]

% Activity: ++ (“++” means between 25% to 100%)
EC50: 10 to 25 µM
SMILES: CCC(C)C(C(=O)Nc1ncc(Cc2ccccc2OC)o1)c1ccccc1 (stereo not shown) [compound 184]

% Activity: ++ (“++” means between 25% to 100%)
EC50: 10 to 25 µM
SMILES: COc1ccccc1Cc1cnc(NC(=O)c2ccccc2)o1 [compound 185]

% Activity: ++ (“++” means between 25% to 100%)
EC50: 10 to 25 µM
SMILES: O=C(Nc1ncc(Cc2ccccc2Cl)o1)C(c1ccccc1)C1CCCCC1 (stereo not shown) [compound 186]

% Activity: ++ (“++” means between 25% to 100%)
EC50: 10 to 25 µM
SMILES: O=C(Nc1ncc(Cc2ccccc2Cl)o1)C(c1ccc(Cl)cc1)c1ccc(Cl)cc1 [compound 187]

% Activity: ++ (“++” means between 25% to 100%)
EC50: 25 to 60 µM
SMILES: O=C(Nc1ncc(Cc2ccccc2Cl)o1)C1Cc2ccccc21 (stereo not shown) [compound 188]

% Activity: ++ (“++” means between 25% to 100%)
EC50: 25 to 60 µM
SMILES: CC(C(=O)Nc1ncc(Cc2ccccc2Cl)o1)c1ccccc1 (stereo not shown) [compound 189]

% Activity: ++ (“++” means between 25% to 100%)
EC50: 25 to 60 µM
SMILES: CCC(C(=O)Nc1ncc(Cc2ccccc2Cl)o1)c1ccccc1 (stereo not shown) [compound 190]

% Activity: ++ (“++” means between 25% to 100%)
EC50: < 10 µM
SMILES: CCC(C)C(C(=O)Nc1ncc(Cc2ccccc2Cl)o1)c1ccccc1 (stereo not shown) [compound 191]

% Activity: ++ (“++” means between 25% to 100%)
EC50: 10 to 25 µM
SMILES: O=C(Nc1ncc(Cc2ccccc2Cl)o1)C(c1ccccc1)C1CCCC1 (stereo not shown) [compound 192]

% Activity: ++ (“++” means between 25% to 100%)
EC50: 10 to 25 µM
SMILES: CC(C)C(C(=O)Nc1ncc(Cc2ccccc2Cl)o1)c1ccccc1 (stereo not shown) [compound 193]

% Activity: ++ (“++” means between 25% to 100%)
EC50: 25 to 60 µM
SMILES: O=C(Cc1ccccc1)Nc1ncc(Cc2ccccc2Cl)o1 [compound 194]

% Activity: ++ (“++” means between 25% to 100%)
EC50: < 10 µM
SMILES: O=C(Nc1ncc(Cc2ccccc2Cl)o1)c1ccccc1 [compound 195]

% Activity: ++ (“++” means between 25% to 100%)
EC50: < 10 µM
SMILES: COc1ccc(S(=O)(=O)N2CCN(C(C)C(=O)Nc3nc(-c4ccccc4)c(-c4ccccc4)s3)CC2)cc1 (stereo not shown) [compound 196]

% Activity: ++ (“++” means between 25% to 100%)
EC50: < 10 µM
SMILES: CC(C(=O)Nc1nc(-c2ccccc2)c(-c2ccccc2)s1)N1CCN(S(=O)(=O)c2ccc(Cl)cc2)CC1 (stereo not shown) [compound 197]

From patent publication US9249131B2, “Modulators of ATP-binding cassette transporters” (Vertex Pharmaceuticals Incorporated, priority 2003, dated 2016)
